The source made the active and inactive calls. The rule behind the calls is not given here.
Columns and labels:
NIH3T3 [1] = experiment: Inhibition of TGFbeta-induced ERK1/2 phosphorylation in mouse NIH3T3 cells at 1 to 10 uM by Western blot analysis; format: functional, cell-based; conditions: dose 1-10 µM
Mus musculus [2] = experiment: Anti-pulmonary fibrotic activity against bleomycin-induced pulmonary fibrosis mouse model assessed as inhibition of Smad2 phosphorylation in lung tissue at 10 to 20 mg/kg, ip administered every alternative day for 8 to 21 days after modeling by immunohistochemical staining based assay; format: functional, organism-based; conditions: dose 10-20 mg/kg, time 8-21 day
[3] = AUC(0 to infinity) in Sprague-Dawley rat at 50 mg/kg, iv measured upto 4 hrs by UPLC-MS/MS analysis; format: ADME, organism-based; conditions: in vivo
Mus musculus [4] = experiment: Anti-pulmonary fibrotic activity against bleomycin-induced pulmonary fibrosis mouse model assessed as inhibition of Smad3 phosphorylation in lung tissue at 10 to 20 mg/kg, ip administered every alternative day for 8 to 21 days after modeling by immunohistochemical staining based assay; format: functional, organism-based; conditions: dose 10-20 mg/kg, time 8-21 day
[5] = Apparent volume of distribution in Sprague-Dawley rat at 50 mg/kg, po measured upto 4 hrs by UPLC-MS/MS analysis; format: ADME, organism-based; conditions: in vivo
[6] = target: Transient receptor potential cation channel subfamily V member 1 (Mus musculus) (UniProt Q704Y3); experiment: Thermal stabilization of TRPV1 in mouse NIH3T3 cells assessed as reduction in TRPV1 degradation at 60 degreeC measured after 30 mins by CETSA; format: cell-based; conditions: dose 1-50 µM
Sequence of Transient receptor potential cation channel subfamily V member 1 (Mus musculus) (Q704Y3 whole entry): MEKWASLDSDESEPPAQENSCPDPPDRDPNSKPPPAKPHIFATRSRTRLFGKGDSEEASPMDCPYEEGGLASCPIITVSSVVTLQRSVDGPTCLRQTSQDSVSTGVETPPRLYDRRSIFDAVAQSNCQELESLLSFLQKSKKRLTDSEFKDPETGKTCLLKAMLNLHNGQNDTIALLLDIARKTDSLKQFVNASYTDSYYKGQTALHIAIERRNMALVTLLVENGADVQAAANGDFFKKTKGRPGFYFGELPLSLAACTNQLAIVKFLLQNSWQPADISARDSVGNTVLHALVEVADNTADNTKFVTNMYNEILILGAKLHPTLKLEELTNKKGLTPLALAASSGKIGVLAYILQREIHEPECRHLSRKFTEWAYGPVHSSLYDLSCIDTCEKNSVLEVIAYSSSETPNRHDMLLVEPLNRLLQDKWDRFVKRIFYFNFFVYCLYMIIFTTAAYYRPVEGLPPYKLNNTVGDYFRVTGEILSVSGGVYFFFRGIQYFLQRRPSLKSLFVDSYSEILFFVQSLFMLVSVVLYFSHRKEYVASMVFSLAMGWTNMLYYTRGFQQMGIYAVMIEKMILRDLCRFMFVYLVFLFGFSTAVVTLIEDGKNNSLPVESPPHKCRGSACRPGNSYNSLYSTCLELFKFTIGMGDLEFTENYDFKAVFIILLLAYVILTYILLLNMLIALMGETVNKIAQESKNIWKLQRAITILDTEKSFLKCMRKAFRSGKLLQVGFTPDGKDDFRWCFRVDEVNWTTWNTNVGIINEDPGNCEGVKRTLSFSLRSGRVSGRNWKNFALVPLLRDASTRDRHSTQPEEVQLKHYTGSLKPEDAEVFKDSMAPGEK

[7] = Acute toxicity in Kunming female mouse assessed as Alanine aminotransferase (ALT) level at 180 mg/kg, ip measured after 14 days (reference value: 33.7 U/L); format: organism-based; conditions: in vivo, 336 h, time 14 day
[8] = target: Transient receptor potential cation channel subfamily V member 1 (Homo sapiens) (UniProt Q8NER1); experiment: Inhibition of TRPV1 (unknown origin) overexpressed in HEK-293T cells assessed as decrease in TGFbeta-induced alpha-SMA expression at 10 uM measured after 48 hrs incubation by Western blotting analysis; format: cell-based
Sequence of Transient receptor potential cation channel subfamily V member 1 (Homo sapiens) (Q8NER1 whole entry): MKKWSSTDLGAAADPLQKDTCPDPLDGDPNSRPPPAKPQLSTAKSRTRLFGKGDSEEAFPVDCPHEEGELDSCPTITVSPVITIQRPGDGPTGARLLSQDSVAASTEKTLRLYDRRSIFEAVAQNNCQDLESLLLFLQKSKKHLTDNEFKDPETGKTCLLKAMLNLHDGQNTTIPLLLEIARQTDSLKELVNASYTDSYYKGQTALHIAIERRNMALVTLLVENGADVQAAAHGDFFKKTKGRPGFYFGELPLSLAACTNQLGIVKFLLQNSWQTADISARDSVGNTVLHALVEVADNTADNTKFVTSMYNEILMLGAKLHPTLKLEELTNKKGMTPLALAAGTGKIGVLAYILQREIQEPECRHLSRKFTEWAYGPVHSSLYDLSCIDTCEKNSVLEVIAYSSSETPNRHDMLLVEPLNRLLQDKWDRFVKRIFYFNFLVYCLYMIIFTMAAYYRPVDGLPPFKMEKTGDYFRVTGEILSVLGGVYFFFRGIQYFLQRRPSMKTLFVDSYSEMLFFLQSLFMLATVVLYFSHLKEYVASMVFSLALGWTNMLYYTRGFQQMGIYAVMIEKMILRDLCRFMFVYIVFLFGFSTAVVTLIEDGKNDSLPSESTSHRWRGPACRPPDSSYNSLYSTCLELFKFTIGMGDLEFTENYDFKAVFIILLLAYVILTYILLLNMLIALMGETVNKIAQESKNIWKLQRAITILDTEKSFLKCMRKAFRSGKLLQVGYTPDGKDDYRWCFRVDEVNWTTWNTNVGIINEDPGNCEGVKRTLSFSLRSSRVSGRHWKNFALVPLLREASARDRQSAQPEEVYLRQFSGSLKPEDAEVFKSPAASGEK

[9] = Oral bioavailability in Sprague-Dawley rat at 50 mg/kg measured upto 4 hrs by UPLC-MS/MS analysis; format: ADME, organism-based; conditions: in vivo
[10] = Tmax in Sprague-Dawley rat at 50 mg/kg, po measured upto 4 hrs by UPLC-MS/MS analysis; format: ADME, organism-based; conditions: in vivo
[11] = target: Transient receptor potential cation channel subfamily V member 1 (Homo sapiens) (UniProt Q8NER1); experiment: Inhibition of TRPV1 (unknown origin) overexpressed in si-TRPV1-2 transfected HEK-293T cells assessed as decrease in TGFbeta-induced alpha-SMA expression at 10 uM measured after 48 hrs incubation by Western blotting analysis; format: cell-based
[12] = AUC(0 to t) in Sprague-Dawley rat at 50 mg/kg, ip measured upto 4 hrs by UPLC-MS/MS analysis; format: ADME, organism-based; conditions: in vivo
[13] = Acute toxicity in Kunming female mouse assessed as Urea level at 180 mg/kg, ip measured after 14 days (reference value: 5.74 mmol/L); format: organism-based; conditions: in vivo, 336 h, time 14 day
NIH3T3 [14] = experiment: Antifibrotic activity in mouse NIH3T3 cells assessed as decrease in TGFbeta-induced Collagen type 1 expression measured after 48 hrs incubation by Western blotting analysis; format: functional, cell-based; conditions: dose 1-10 µM
Rattus norvegicus [15] = experiment: Cz in Sprague-Dawley rat at 50 mg/kg, iv measured upto 4 hrs by UPLC-MS/MS analysis; format: ADME, organism-based; conditions: in vivo
[16] = Apparent volume of distribution in Sprague-Dawley rat at 50 mg/kg, iv measured upto 4 hrs by UPLC-MS/MS analysis; format: ADME, organism-based; conditions: in vivo, read-out: Vz
NIH3T3 [17] = experiment: Inhibition of TGFbeta-induced Smad3 phosphorylation in mouse NIH3T3 cells by Western blot analysis; format: functional, cell-based; conditions: dose 1-10 µM
[18] = AUMC(0 to t) in Sprague-Dawley rat at 50 mg/kg, ip measured upto 4 hrs by UPLC-MS/MS analysis; format: ADME, organism-based; conditions: in vivo
NIH3T3 [19] = experiment: Anti-fibrotic activity in mouse NIH3T3 cells assessed as inhibition of TGFbeta-induced total collagen production at 10 uM measured after 48 hrs by Sirius Red Collagen Detection Kit relative to control; format: functional
[20] = Cytotoxicity against mouse NIH3T3 cells assessed as survival rate at 10 uM measured after 24 hrs by CCK-8 assay relative to control; format: toxicity, cell-based; conditions: read-out: Survival
[21] = MRT(0 to t) in Sprague-Dawley rat at 50 mg/kg, po measured upto 4 hrs by UPLC-MS/MS analysis; format: ADME, organism-based; conditions: in vivo
Mus musculus [22] = experiment: Anti-fibrotic activity against bleomycin-induced pulmonary fibrosis mouse model assessed as increase in survival of mouse at 10 to 20 mg/kg, ip administered every alternative day for 8 to 21 days after modeling; format: functional, organism-based; conditions: dose 10-20 mg/kg, time 8-21 day
Rattus norvegicus [23] = experiment: Zeta in Sprague-Dawley rat at 50 mg/kg, po measured upto 4 hrs by UPLC-MS/MS analysis; format: ADME, organism-based; conditions: in vivo
[24] = Acute toxicity in Kunming mouse assessed as organ lesions in liver at 180 mg/kg, ip measured after 14 days by H and E staining based assay; format: organism-based; conditions: in vivo, 336 h, time 14 day
[25] = VRT(0 to t) in Sprague-Dawley rat at 50 mg/kg, ip measured upto 4 hrs by UPLC-MS/MS analysis; format: ADME, organism-based; conditions: in vivo
Mus musculus [26] = experiment: Anti-pulmonary fibrotic activity against bleomycin induced pulmonary fibrosis mouse model assessed as reduction in inflammatory cell infiltration at 10 to 20 mg/kg, ip administered every alternative day for 8 to 21 days after modeling; format: functional, organism-based; conditions: dose 10-20 mg/kg, time 8-21 day
[27] = AUMC(0 to t) in Sprague-Dawley rat at 50 mg/kg, po measured upto 4 hrs by UPLC-MS/MS analysis; format: ADME, organism-based; conditions: in vivo
NIH3T3 [28] = experiment: Antifibrotic activity in mouse NIH3T3 cells assessed as decrease in TGFbeta-induced alpha-SMA expression measured after 48 hrs incubation by Western blotting analysis; format: functional, cell-based; conditions: dose 1-10 µM
[29] = VRT(0 to infinity) in Sprague-Dawley rat at 50 mg/kg, po measured upto 4 hrs by UPLC-MS/MS analysis; format: ADME, organism-based; conditions: in vivo
[30] = target: Transient receptor potential cation channel subfamily V member 1 (Homo sapiens) (UniProt Q8NER1); experiment: Inhibition of TRPV1 (unknown origin) overexpressed in HEK-293T cells assessed as reduction in calcium level measured after 24 hrs by Fluo-4 calcium ion detection kit; format: cell-based
[31] = VRT(0 to t) in Sprague-Dawley rat at 50 mg/kg, po measured upto 4 hrs by UPLC-MS/MS analysis; format: ADME, organism-based; conditions: in vivo
Mus musculus [32] = experiment: Anti-pulmonary fibrotic activity against bleomycin induced pulmonary fibrosis mouse model assessed as reduction in alveolar structure at 10 to 20 mg/kg, ip administered every alternative day for 8 to 21 days after modeling; format: functional, organism-based; conditions: dose 10-20 mg/kg, time 8-21 day
Mus musculus [33] = experiment: Anti-fibrotic activity against bleomycin-induced pulmonary fibrosis mouse model assessed as increase in forced vital capacity (FVC) at 10 to 20 mg/kg, ip administered every alternative day for 8 to 21 days after modeling; format: functional, organism-based; conditions: dose 10-20 mg/kg, time 8-21 day
[34] = Acute toxicity in Kunming female mouse assessed as Direct bilirubin (D-Bil) level at 180 mg/kg, ip measured after 14 days (reference value: 3.37 micromol/L); format: organism-based; conditions: in vivo, 336 h, time 14 day
[35] = VRT(0 to infinity) in Sprague-Dawley rat at 50 mg/kg, iv measured upto 4 hrs by UPLC-MS/MS analysis; format: ADME, organism-based; conditions: in vivo
[36] = Tmax in Sprague-Dawley rat at 50 mg/kg, ip measured upto 4 hrs by UPLC-MS/MS analysis; format: ADME, organism-based; conditions: in vivo
[37] = Acute toxicity in Kunming female mouse assessed as Uric acid (UA) level at 180 mg/kg, ip measured after 14 days (reference value: 252.2 micromol/L); format: organism-based; conditions: in vivo, 336 h, time 14 day

SMILES: O=C(/C=C/c1ccc(O)c(O)c1)CCCCc1ccccc1
- inhibition (NIH3T3 [1]): Active
- Activity (Mus musculus [2]): Active
- AUC [3]: 2670.601 ng·h/mL
- Activity (Mus musculus [4]): Active
- Vz [5]: 237.78 L/kg
- Activity [6]: Dose-dependent-effect
- Activity [7]: 40.1 U/L
- inhibition [8]: Active
- bioavailability [9]: 6.5%
- Tmax [10]: 10.2 min
- inhibition [11]: inactive
- AUC(0-t) at 4 h [12]: 1100 ng·h/mL
- Activity [13]: 6.51 mmol/L
- Activity (NIH3T3 [14]): Dose-dependent-effect; Compound More Potent Than Nintedanib
- Cz (Rattus norvegicus [15]): 31.67 µg/L
- Vd [16]: 7.17 L/kg
- inhibition (NIH3T3 [17]): Dose-dependent-effect; Compound Showed Superior Inhibition Effect Than Nintedanib
- AUMCt [18]: 568.11 ug/L.hr
- inhibition at 10 µM (NIH3T3 [19]): 80.7%
- viability at 24 h, 10 µM [20]: 99.2%
- MRT last at 4 h [21]: 73.2 min
- Activity (Mus musculus [22]): Active; Comparable To Nintedanib
- Activity (Rattus norvegicus [23]): 0.84
- Activity [24]: Non-toxic
- VRT(t) [25]: 0.53 hr2
- Activity (Mus musculus [26]): Active
- AUMCt [27]: 121.11 ug/L.hr
- Activity (NIH3T3 [28]): Dose-dependent-effect; Compound More Potent Than Nintedanib
- VRT [29]: 1.28 hr2
- inhibition [30]: Active
- VRT(t) [31]: 0.75 hr2
- Activity (Mus musculus [32]): Active
- Activity (Mus musculus [33]): Active
- Activity [34]: 1.02 µmol/L
- VRT [35]: 0.779 hr2
- Tmax [36]: 10.2 min
- Activity [37]: 345.6 µmol/L

From ChEMBL document CHEMBL6096723, “Discovery of novel capsaicin analogs as TRPV1 inhibitors for the treatment of idiopathic pulmonary fibrosis” (Eur J Med Chem, 2025)
